In patent US8158810B2 (Gilead Sciences, Inc., priority 2006, dated 2012):

Tests used:
[1] = system: Male Sprague-Dawley rats; assay: Cocaine self administration and reinstatement model (cocaine induced relapse); format: in vivo, rat; settings: for Lever presses (Avg ± Std. error): significantly different from Vehicle, p < 0.05
Procedure: Intravenous cocaine (0.35 mg/kg/inj) was used in an operant self administration and reinstatement model in rats. In this model, rats addicted to cocaine repeatedly pressed a lever to obtain an intravenous dose (iv) of cocaine. When cocaine was removed, rats stopped pressing the lever. However, rats resumed lever pressing for cocaine (reinstatement) if subjected to a small intraperitoneal (ip) dose (10 mg/kg) of cocaine that normally has no effect in naïve animals. This is a valid animal model of relapse in cocaine addicted humans, and tests the ability of compounds of Formula I to block cocaine craving and relapse.
Male Sprague-Dawley rats with jugular vein catheterization were used. Rats were presented with a choice of two levers in the test/training chamber. […] The following day the reinforcer was switched to FR1 lever pressing for cocaine (0.35 mg/kg/inj, delivered in 0.27 sec). […] Daily training sessions for each group lasted 2 hours, or until a subject earned 200 drug infusions, whichever came first. The subjects remained in drug self-administration training mode until acquisition criterion was met (average presses on the active lever varied by <10% over 3 consecutive training days). This typically takes 10-14 days.
For extinction and reinstatement experiments, rats were required to display stable responding (variability not higher than 15% in 2 consecutive sessions) on the FR1 schedule of reinforcement. […] When average responding across three consecutive extinction sessions fell to 15% of responding during maintenance, subjects were tested for reinstatement. In cocaine-experienced animals, reinstatement was primed with a non-contingent injection of cocaine (10 mg/kg ip) immediately before the reinstatement session. In order to increase statistical power and therefore decrease animal usage, a second extinction period was initiated 3-4 days after the first, which allowed for additional within-subjects comparisons. Experiments used a between-session-training and testing method in which animals were trained to self administer drug. Their behavior was then extinguished and then reinstatement was primed on different days.
Animals were trained to self administer cocaine (0.35 mg/kg/inj) until they reached stable responding. They were then trained in the same chambers but cocaine was no longer available.

[2] = system: Wistar-derived male rats; assay: Nicotine self-administration; format: in vivo, rat; settings: increasing doses (7.5, 10, 15 mg/kg i.p.) 30 minutes prior to session
Procedure: Wistar-derived male rats (250-300 g) were housed in groups of two and maintained in a temperature-controlled environment on a 12 hour: 12 hour light cycle (0600 h on-1800 h off), upon arrival in the laboratory. Animals were given free access to food and water during a one-week habituation period to the laboratory. […] Animals were handled daily for several days to desensitize them to handling stress before experimental testing. The sample sizes (n=8) provided reliable estimates of drug effects.
Mecamylamine was dissolved in 0.09% isotonic saline and administered at a volume of 1 ml/kg.
Food training and nicotine self-administration took place in 8 standard Coulbourn operant chambers. Each chamber was housed in a sound-attenuated box. Operant chambers were equipped with two levers, mounted 2 cm above the floor, and a cue light mounted 2 cm above the right lever on the back wall of the chamber. For food training, a food hopper was located 2-cm to the left/right of either lever, in the middle of the back wall. Intravenous infusions were delivered in a volume of 0.1 ml over a 1 second interval via an infusion pump (Razel, Conn.) housed outside of the sound attenuated chamber.
Initially, rats were restricted to 15 grams of food daily (approximately 85% of their free-feeding body weight). […]

[3] = biological target: T1, hMAO-B (Homo sapiens, UniProt P27338); assay: MAO-B inhibition assay; format: biochemical; settings: at 10 μM; No = no inhibition; printed in the IC50 hMAO-B column
T1 construct: purchased Sigma M7441
T1 sequence (P27338 1-520): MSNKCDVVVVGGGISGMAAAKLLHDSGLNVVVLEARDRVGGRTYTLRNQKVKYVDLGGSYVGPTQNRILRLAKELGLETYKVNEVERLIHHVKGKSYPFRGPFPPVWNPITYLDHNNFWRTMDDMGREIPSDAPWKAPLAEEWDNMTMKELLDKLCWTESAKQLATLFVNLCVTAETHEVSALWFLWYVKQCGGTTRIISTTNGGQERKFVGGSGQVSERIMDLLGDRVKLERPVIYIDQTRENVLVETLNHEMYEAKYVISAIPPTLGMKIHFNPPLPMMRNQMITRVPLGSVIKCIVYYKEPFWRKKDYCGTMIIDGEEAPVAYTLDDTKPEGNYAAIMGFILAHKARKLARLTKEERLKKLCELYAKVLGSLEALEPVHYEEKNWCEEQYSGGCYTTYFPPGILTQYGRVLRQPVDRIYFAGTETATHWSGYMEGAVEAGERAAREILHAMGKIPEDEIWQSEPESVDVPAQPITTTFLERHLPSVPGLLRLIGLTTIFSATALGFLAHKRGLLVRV
Procedure: MAO-A (Sigma M7316) and MAO-B (Sigma M7441) inhibition assays were conducted in 96-well micro-plates according to the method described by Zhou et al. [Analytical Biochemistry 253, 169-174, 1997]. […] Reactions were initiated by the addition of a pre-mixed solution of tyramine, horseradish peroxidase and Amplex Red, and were allowed to proceed at 37° C. for 30 min. Enzyme activities were determined by measuring absorbance at 570 nm (SpectralMax Plate reader), absorbance of oxidized Amplex Red generated by this horseradish peroxidase-coupled reaction. Nonspecifically formed products were determined in the presence of 2 and 10 µM clorgyline and deprenyl for MAO-A and MAO-B, respectively. IC50 values were determined by fitting concentration-inhibition data to sigmoidal dose-response curves with two-floating parameters: IC50 and Hill coefficient.

[4] = biological target: T2, hMAO-A (Homo sapiens, UniProt P21397); assay: MAO-A inhibition assay; format: biochemical; settings: up to 10 μM; No = no inhibition; printed in the IC50 hMAO-A column
T2 construct: purchased Sigma M7316
T2 sequence (P21397 1-527): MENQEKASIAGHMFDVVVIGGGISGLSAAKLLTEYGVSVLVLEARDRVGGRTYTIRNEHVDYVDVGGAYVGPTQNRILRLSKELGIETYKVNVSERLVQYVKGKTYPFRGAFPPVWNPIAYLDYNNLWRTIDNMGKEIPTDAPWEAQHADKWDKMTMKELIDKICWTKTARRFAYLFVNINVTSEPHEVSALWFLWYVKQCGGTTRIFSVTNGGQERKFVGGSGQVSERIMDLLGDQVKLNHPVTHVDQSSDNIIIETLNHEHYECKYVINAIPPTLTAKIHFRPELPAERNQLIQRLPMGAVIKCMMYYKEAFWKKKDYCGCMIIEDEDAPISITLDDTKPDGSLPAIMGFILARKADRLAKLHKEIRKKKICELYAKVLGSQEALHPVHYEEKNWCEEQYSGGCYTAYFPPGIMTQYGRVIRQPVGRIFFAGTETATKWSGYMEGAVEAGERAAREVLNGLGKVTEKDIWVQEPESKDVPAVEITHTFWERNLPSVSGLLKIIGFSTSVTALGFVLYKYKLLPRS
Outline: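 Human MAO-A (0.6 U/ml) or MAO-B (2.5 U/ml) in 0.1 M potassium phosphate pH 7.5 with 0.5 mM tyramine, 0.12 mM Amplex Red and HRP; compounds at 0.1 nM-10 μM, 30 min at 37 °C, absorbance at 570 nm. Background set with clorgyline (MAO-A) or deprenyl (MAO-B); IC50 from sigmoidal fits.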

[5] = biological target: T3, hALDH2 (recombinant human mitochondria ALDH) (Homo sapiens, UniProt P05091); assay: ALDH2 inhibition assay; format: biochemical
T3 sequence (P05091 18-517): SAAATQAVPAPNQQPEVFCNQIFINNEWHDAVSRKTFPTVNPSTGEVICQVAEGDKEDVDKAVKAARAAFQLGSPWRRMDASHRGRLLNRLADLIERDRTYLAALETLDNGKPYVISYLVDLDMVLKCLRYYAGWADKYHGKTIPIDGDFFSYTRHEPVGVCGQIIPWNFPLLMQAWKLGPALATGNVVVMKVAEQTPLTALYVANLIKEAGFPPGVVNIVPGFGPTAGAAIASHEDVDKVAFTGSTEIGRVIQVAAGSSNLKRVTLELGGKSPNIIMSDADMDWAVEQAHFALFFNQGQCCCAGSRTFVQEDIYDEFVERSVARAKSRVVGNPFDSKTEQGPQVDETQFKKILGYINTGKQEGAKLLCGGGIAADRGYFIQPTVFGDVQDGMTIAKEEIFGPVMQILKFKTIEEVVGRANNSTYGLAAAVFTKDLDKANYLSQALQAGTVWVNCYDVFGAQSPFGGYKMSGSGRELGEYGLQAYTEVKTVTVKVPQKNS
Procedure: ALDH2 inhibition assays were performed in sodium phosphate buffer (50 mM, pH 7.4) containing 1.2 mM NAD^+ (Sigma N7004), 1 nM hALDH2 (recombinant human mitochondria ALDH), various concentrations of test compounds (from 0.03 nM to […]), and 0.15 mM freshly prepared formaldehyde solution (Ladd Research 20295). Reactions were initiated by the addition of formaldehyde and rates were recorded by monitoring NADH formation in a temperature controlled (25° C.) FluoroMax-2 Fluorimeter with excitation and emission wavelengths set at 340 and 460 nm, respectively. […] Normally, IC50 values were determined by fitting concentration-inhibition data to sigmoidal dose-response curves with two-floating parameters: IC50 and Hill coefficient. When tight binding situation was suspected, apparent Ki values were estimated by fitting dose-response data to Morrison's equation [Methods in Enzymology 63, 437-467, 1979].

Compound | Lever presses (Avg ± Std. error) ([1]; 7.5 mg/kg prior to cocaine priming dose (10 mg/kg), N = 9) | Lever presses (Avg ± Std. error) ([1]; 10 mg/kg prior to cocaine priming (10 mg/kg) dose, N = 6) | lever presses responding after priming injection of cocaine ([1]; 7.5 and 10 mg/kg prior to the priming injection of cocaine (10 mg/kg)) | relapse for cocaine ([1]; ip injections, rats) | number of bar presses (number of infusions) for nicotine administration [2] | hMAO-B inhibition at 10 μM [3] | hMAO-A inhibition up to 10 μM [4] | hALDH2 inhibition at 1 μM ([5]; at 1 μM, printed in the IC50 hALDH2 column) | IC50 [5]
CS(=O)(=O)Nc1ccc(-c2coc3cc(OCc4cccc(C(=O)O)c4)ccc3c2=O)cc1 [Cmpd A, 3-[(3-{4-[(methylsulfonyl)amino]phenyl}-4-oxochromen-7-yloxy)methyl]-benzoic acid] | 24.94 ± 7.92 | 19.83 ± 11.30 | did not show an increase in their lever presses responding | dose dependently blocked relapse for cocaine | reduced the number of bar presses | – | – | – | –
O=c1c(-c2cn[nH]c2)coc2cc(OCc3noc(-c4cc(F)cc(C(F)(F)F)c4)n3)ccc12 [PT-75, 7-({5-[3-fluoro-5-(trifluoromethyl)phenyl](1,2,4-oxadiazol-3-yl)}methoxy)-3-(5-hydropyrazol-4-yl)chromen-4-one] | – | – | – | – | – | No | No | 14% | –
O=c1c(-c2ccc(O)cc2)coc2cc(OCCc3nnc(-c4ccc(F)cc4)o3)ccc12 [PT-112, 7-{[5-(4-fluorophenyl)(1,3,4-oxadiazol-2-yl)]echoxy}-3-(4-hydroxyphenyl)chromen-4-one] | – | – | – | – | – | No | No | – | 5 nM
ethyl 3-[7-({3-[3-fluoro-5-(trifluoromethyl)phenyl](1,2,4-oxadiazol-5-yl)}ethoxy)-4-oxochromen-3-yl]benzoate [PT-76] | – | – | – | – | – | 21% | No | – | 63 nM
